Data taken from patent US6194396A, “Benzimidazole compounds as bradykinin antagonists” (Fujisawa Pharmaceutical Co., Ltd., priority 1994, dated 2001).
Where a name gives a salt, the structure may show the parent alone.

Biological target: T1, Bradykinin receptor (Cavia porcellus, UniProt O70526)
T1 construct: The ileum was removed and homogenized in buffer; from tissue; host or cells: guinea pig ileum, crude membrane suspension (male Hartley strain, given 'Hartly' in the source)
T1 sequence (O70526 1-372): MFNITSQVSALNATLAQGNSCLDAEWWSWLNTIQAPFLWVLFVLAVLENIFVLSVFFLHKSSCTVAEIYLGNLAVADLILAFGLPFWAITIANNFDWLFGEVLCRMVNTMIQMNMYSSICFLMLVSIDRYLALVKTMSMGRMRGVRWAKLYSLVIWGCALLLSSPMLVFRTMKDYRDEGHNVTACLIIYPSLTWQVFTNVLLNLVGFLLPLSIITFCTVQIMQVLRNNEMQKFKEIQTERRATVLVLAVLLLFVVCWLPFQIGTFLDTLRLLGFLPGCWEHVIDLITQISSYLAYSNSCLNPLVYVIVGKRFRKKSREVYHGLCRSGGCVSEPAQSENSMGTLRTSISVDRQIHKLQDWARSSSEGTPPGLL
Assay: 3H-Bradykinin receptor binding (crude ileum membrane)
Parameters: species or system guinea pig (male Hartly strain)
Settings: concentration: 1 × 10^-5 M; 0.06 nM 3H-Bradykinin; guinea pig ileum membrane; room temperature, 60 minutes
Protocol: ^3 H-Bradykinin receptor binding
(a) Crude ileum membrane preparation
Male Hartly strain guinea pigs were sacrificed by decapitation. The ileum was removed and homogenized in buffer (50 mM trimethylaminoethanesulfonic acid (TES), 1 mM 1,10-phenanthroline pH 6.8). The homogenate was centrifuged (1000 xg, 20 minutes) to remove tissue clumps and the supernatant was centrifuges (100,000 xg, 60 minutes) to yield a pellet. The pellet was resuspended in buffer (50 mM TES, 1 mM 1,10-phenanthroline,140 mg/l bacitracin, 1 mM dithiothreiol, 0.1% bovine serum albumin pH 6.8) and homogenized with a glass-teflon homogenizer to yield suspension which was referred to as crude membrane suspension. The obtained membrane suspension was stored at -80° C. until use.
(b) ^3 H-Bradykinin binding to the membrane
The frozen crude membrane suspension was thawed. In binding assays, ^3 H-Bradykinin (0.06 nM) and drug (1×10^-5 M) were incubated with 50 μl of the membrane suspension at room temperature for 60 minutes in a final volume of 250 μl. Separation of receptor-bound from free 3H-Bradykinin is achieved by immediate filtration under vacuum and washed three times with 5 ml of ice-cold buffer (50 mM Tris-HCl pH 7.5). Non-specific binding was defined as binding in the presence of 0.1 μM Bradykinin. The radioactivity retained on rinsed filters was determined by a liquid-scintillation counter.

Row | Inhibition % of ^3 H-Bradykinin binding | SMILES
1 | 99% | CNC(=O)c1ccc(/C=C/C(=O)NCC(=O)N(C)c2ccc(Cl)c(COc3cccc4c3nc(C)n4C)c2Cl)cc1 [Example 7, 4-[2,6-dichloro-3-[N-methyl-N-[4-(methyl-carbamoyl)cinnamoylglycy]amino]benzyloxy]-1,2-dimethyl-1H-benzimidazole]
2 | 94% | CNC(=O)c1ccc(/C=C/C(=O)NCC(=O)N(C)c2ccc(C)c(COc3cccc4c3nc(C(C)=O)n4C)c2C)cc1 [15-(9) hydrochloride]
3 | 98% | CNC(=O)c1ccc(/C=C/C(=O)NCC(=O)N(C)c2ccc(Cl)c(COc3cccc4c(C)c(C)oc34)c2Cl)cc1 [15-(20), 7-[2,6-Dichloro-3-[N-[4-(methylcarbamoyl)cinnamoylglycyl]-N-methylamino]benzyloxy]-2,3-dimethylbenzofuran]
